Columns and labels:
Aiolos = experiment: IMiD activity: Aiolos degradation in PBMCs by flow cytometry; format: cell-based; conditions: human PBMCs, 24 hours
Procedure: In addition, Compounds 1-24 were assayed for IMiD activity. Frozen human peripheral blood mononuclear cells (PBMCs) were thawed and treated with DMSO or compound for 24 hours and then fixed and permeabilized using a Foxp3/Transcription Factor Fixation/Permeabilization Kit (eBioscience, 00-5523). Cells were stained with fluorophore-conjugated antibodies against CD20 (Biolegend 302330), CD3 (BD Pharmingen 552127), and Aiolos (Biolegend 371106). An additional set of DMSO-treated PBMCs was stained for CD20, CD3, and an AlexaFluor 647-conjugated mouse IgG1 isotype control antibody (Biolegend 400136). Stained cells were run on an Attune NxT Acoustic Focusing Flow Cytometer (Thermo-Fisher A29004), and data was analyzed using FlowJo (v10.5.3) and GraphPad Prism (v7.00) software. Single lymphocytes were gated for B cells (CD20+CD3-) and T cells (CD3+CD20-), and the geometric mean fluorescence intensity (MFI) of Aiolos was calculated for each population. The MFI of the isotype control was calculated for each population and used to quantify background staining. Percent Aiolos degradation was calculated for each compound-treated sample using the following equation: […]
DC50 is the compound concentration degrading 50% of Aiolos. Dmax is the maximum percent Aiolos degradation in the assay.

plasma cell generation = experiment: Plasma cell generation upon NP-KLH immunization; format: in vivo, Mice
Procedure: Mice were immunized by intraperitoneal injection of 200 μL of immunogen containing 100 μg NP-32-KLH (Biosearch Technologies, Cat. N-5060-25,Lot. 156285-01) and 1% Alum (Alhydrogel, 2%, Invivogen Cat. Vac-alu-250, Batch 0001715532, Exp. July 2022), prepared in phosphate buffered saline. Group 1 mice were not immunized and used as control. Mice in Group 2 to 5 were dosed orally once a day from Day 1 to Day 7 with compounds or vehicle for six additional days and then sacrificed the following day. Splenocytes and bone marrow were harvested 24 hours following the final dosing of compound on Day 7. Spleens harvested at the end of the study were dissociated, and red blood cells were lysed with ammonium-chloride-potassium (ACK) lysis buffer. 1 million cells per tissue were stained for each flow cytometry panel.
Splenocytes were stained for lineage markers with fluorophore-conjugated antibodies and for NP hapten reactivity with NP-conjugated to phycoerythrin (NP-PE). Live single lymphocytes were gated for B cells (CD19+B220+) and then gated for IgD+ and IgD− B cells. IgD− B cells were then gated for germinal center B cells (Fas+GL-7+), and germinal center B cells were gated for NP+ cells on the basis of staining with NP-PE.
An ordinary one-way ANOVA with Tukey's multiple comparisons test was performed, and all groups were compared to each other. * p<0.05, ** p<0.01,**** p<0.001. All comparisons without an asterisk were not significant.

intracranial TMD8 tumors = experiment: Intracranial TMD8 tumor model, tumor burden; format: in vivo, female CB.17 SCID mice; conditions: 90 mg/kg orally every day for twelve days, vs vehicle
Text: TMD8 is a human activated B cell (ABC)-type diffuse large B cell lymphoma (DLBCL) cell line that is dependent on BTK signaling for survival (Davis, R. E., Ngo, V. N., Lenz, G., Tolar, P., Young, R. M., Romesser, P. B., Staudt, L. M. (2010). Chronic active B-cell-receptor signalling in diffuse large B-cell lymphoma. Nature, 463(7277), 88-92. doi: 10.1038/nature08638).
TMD8 cells were implanted into female CB.17 SCID mice by intracranial injection of 5E5 TMD8 cells. Treatment with compound 1 begun the following day. Mice were treated orally every day for twelve days with either vehicle or 90 mg/kg of Compound 1. Brains were then harvested, dissociated into single cell suspensions and BTK level in TMD8 cells was assessed by flow cytometry. TMD8 cells in dissociated brain tissue were identified by human-specific surface markers (CD20+HLA+) and total numbers of TMD8 cells per brain is reported in (A, tumor burden). Percent BTK remaining in TMD8 cells (B) was calculated according to the below formula: […]

tumor-expressed BTK = target: T1, tumor-expressed BTK (Homo sapiens, UniProt Q06187); experiment: Intracranial TMD8 tumor model, BTK remaining in TMD8 cells; format: in vivo, female CB.17 SCID mice; conditions: 90 mg/kg orally every day for twelve days, vs vehicle
T1 construct: endogenous in cells; host or cells: TMD8 cells (human ABC-DLBCL) grown intracranially in CB.17 SCID mice
Procedure: TMD8 cells were implanted into female CB.17 SCID mice by intracranial injection of 5E5 TMD8 cells. Treatment with compound 1 begun the following day. Mice were treated orally every day for twelve days with either vehicle or 90 mg/kg of Compound 1. Brains were then harvested, dissociated into single cell suspensions and BTK level in TMD8 cells was assessed by flow cytometry. TMD8 cells in dissociated brain tissue were identified by human-specific surface markers (CD20+HLA+) and total numbers of TMD8 cells per brain is reported in (A, tumor burden). Percent BTK remaining in TMD8 cells (B) was calculated according to the below formula:
100*(tumor BTK MFI−background MFI)/(peak MFI−background MFI),
where background MFI and peak MFI were calculated using TMD8 cells treated, in vitro, overnight with 1 μM compound 1 or DMSO control, respectively. In FIG. 8,**** p<0.0001; Welch's t-test was used to compare mice treated with compound 1 to mice treated with vehicle.

T1 sequence (Q06187 whole entry): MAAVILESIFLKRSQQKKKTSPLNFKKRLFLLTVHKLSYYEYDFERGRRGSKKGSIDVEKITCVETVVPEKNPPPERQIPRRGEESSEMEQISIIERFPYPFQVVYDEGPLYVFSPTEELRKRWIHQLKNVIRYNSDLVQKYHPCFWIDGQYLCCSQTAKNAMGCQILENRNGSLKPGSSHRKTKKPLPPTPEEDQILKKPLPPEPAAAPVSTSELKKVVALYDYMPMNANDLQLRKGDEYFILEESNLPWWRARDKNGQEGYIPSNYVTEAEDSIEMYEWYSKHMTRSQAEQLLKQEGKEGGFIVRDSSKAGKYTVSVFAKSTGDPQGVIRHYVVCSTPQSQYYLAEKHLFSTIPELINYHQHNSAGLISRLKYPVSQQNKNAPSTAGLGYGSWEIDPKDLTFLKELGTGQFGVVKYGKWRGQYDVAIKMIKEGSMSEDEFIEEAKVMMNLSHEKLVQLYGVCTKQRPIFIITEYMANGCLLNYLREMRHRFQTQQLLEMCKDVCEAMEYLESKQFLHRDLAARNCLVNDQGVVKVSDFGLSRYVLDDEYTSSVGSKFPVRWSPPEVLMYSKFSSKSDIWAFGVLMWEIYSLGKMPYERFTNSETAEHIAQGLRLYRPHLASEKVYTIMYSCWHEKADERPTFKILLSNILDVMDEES

CN1CCN([C@@H]2CCCN(c3cnc(C(N)=O)c(Nc4ccc(C5CCN(CC6CCN(c7ccc(C(=O)N[C@H]8CCC(=O)NC8=O)nc7)CC6)CC5)cc4)n3)C2)C1=O [Compound 1]
DC50 (Aiolos; compound concentration degrading 50% of Aiolos): 631 nM
Dmax (Aiolos; maximum percent Aiolos degradation in the assay): 18.7%
generation of plasma cells upon immunization (plasma cell generation; NP-KLH immunization, oral once a day Day 1 to Day 7): significantly decrease
germinal center formation (plasma cell generation; following NP-KLH immunization): do not affect
number of B cells in spleen (plasma cell generation; following NP-KLH immunization): do not affect
number of IgG1+ plasma cells in spleen (plasma cell generation; immunized mice): significantly decrease
number of total Plasma cells in spleen (plasma cell generation; immunized mice): significantly decrease
tumor burden (total TMD8 cells per brain) (intracranial TMD8 tumors): reduced tumor burden
tumor burden (total TMD8 cells per brain) (intracranial TMD8 tumors; listed as compound 1): significantly reduced TMD8 tumor cells
BTK in TMD8 tumor cells (tumor-expressed BTK): degradation of tumor-expressed BTK
BTK in TMD8 tumor cells (tumor-expressed BTK; listed as compound 1): degraded BTK

Reference: patent US20240336595A1, “BIFUNCTIONAL COMPOUNDS FOR DEGRADING BTK WITH DIMINISHED IMID ACTIVITY” (NURIX THERAPEUTICS, INC., priority 2021, published 2024)
